Source: patent US6844466B2, “Alkyl urea retinoid agonists” (Syntex (U.S.A.) LLC, priority 2001, dated 2005)
Where “and” joins values, the source holds several entries; their conditions need not be identical. Equal values may be shown once.

Tests used:
[1] = tested on: rat model of elastase-induced emphysema; assay: Alveolar repair in the rat model of elastase-induced emphysema; format: in vivo, male Sprague Dawley rats; conditions: oral once per day, lower dosage levels (0.01 or 0.001 mg/kg), p≦0.05, FIG. 1
From the text: Compounds of the invention may be evaluated for their effects on alveolar repair in the rat model of elastase-induced emphysema (Massaro et al., Nature, 1997, Vol. 3, No. 6: 675; Massaro et al., U.S. Pat. No. 5,998,486). Preferably, animals are divided into treatment groups of approximately eight. Lung inflammation and alveolar damage may be induced in male Sprague Dawley rats by a single instillation of about 2 U/gram body mass of pancreatic elastase (porcine derived, Calbiochem).
Animals may be treated with a compound of the invention formulated Miglyol at convenient oral dosage ranges (preferably, between about 10.0 mg/kg and 0.0001 mg/kg) and will be dosed orally once per day starting 21 days post injury. Control groups are challenged with elastase and 21 days later are treated with vehicle (Miglyol) for 14 days. Animals were sacrificed 24 hours after the last dose by exsanguination under deep anesthesia. Blood was collected at time of exsanguination for analysis.
The lungs are inflated with 10% neutral buffered formalin by intratracheal instillation at a constant rate (1 ml/gram body mass/min). […] The mean value/treatment group may be determined by summing the average area/rat for all eight rats/treatment groups and repair of elastase damage expressed as percentage of repair relative to the elastase+vehicle treated group from the following calculation: […]

[2] = Effect of RAR agonists on plasma triglyceride levels; format: in vivo, male, Wistar Han rats; conditions: rat, oral
From the text: Sixty male, Wistar Han rats (Charles Rivers Laboratories) were used in this experiment. The received weight of the rats varied between 200-250 gm. The compounds used in this study were formulated in Miglyol 812, Batch 000719, Product #6330 (Condea) with 0.01% BHA and 0.01% BHT. Three RAR agonists, illustrated below, were compared with regards to their effects on triglyceride levels. Compounds 39 and 40 are prior art compounds (see, Hashimoto, Yuichi; Kagechika, Hiroyuki; Kawachi, Emiko; Fukasawa, Hiroshi; Saito, Go; Shudo, Koichi. “Evaluation of differentiation-inducing activity of retinoids on human leukemia cell lines HL-60 and NB4” Biol. Pharm. Bull. (1996), 19(10), 1322-1328; and Takagi, Kanji; Suganuma, Masami; Kagechika, Hiroyuki; Shudo, Koichi; Ninomiya, Mitsuo; Muto, Yasutoshi; Fujiki, Hirota. “Inhibition of ornithine decarboxylase induction by retinobenzoic acids in relation to their binding affinities to cellular retinoid-binding proteins” J. Cancer Res. Clin. Oncol. (1988), 114(3), 221-4, while compound 27 is a compound prepared in Example 7, herein.
Animals were dosed with compounds 27, 39 and 40 or vehicle for two weeks (one 1.0 mL dose a day, total of 10 doses) by oral administration. Doses were 0.3 mg/kg, 1 mg/kg and 3 mg/kg. Animals were weighed twice a week for monitoring gross toxicity (% weight change and mucutaneous).
Animals were fasted for at least 4 hours before terminal blood collection. At the end of the experiment the animals were placed under deep anesthesia using pentobarbital ip (30-40 mg). Five to six ml of blood was collected via cardiac puncture for blood chemistry (Quality Clinical Lab, Mountain View, Calif.) and PK analysis (terminal). Animals were euthanized by exsanguination from the abdominal aorta or cervical dislocation. Plasma was collected and stored at −20
Quantitation of triglycerides contained in rat plasma may be performed using established procedures. […] Hydrogen peroxide may be quantitated […] in a Hitachi 911 Chemistry Analyzer. […]

[3] = tested on: retinoic acid receptor (α, β and γ); assay: Transactivation of retinoic acid receptors; format: cell-based; conditions: compared to prior art compounds 39 and 40
From the text: Transactivation, which is the ability of a retinoid to activate gene transcription when gene transcription is initiated by the binding of a ligand to the particular retinoic acid receptor being tested, may be determined by using methods described in the art (Apfel et al., Proc. Natl. Acad. Sci., 1992, 89, 7129; Bernard et al., Biochem. And Biophys. Res. Comm., 1992, 186, 977 which is herein incorporated by reference).

Row | melting point | SMILES | selectivity of transactivation among RAR α, β and γ [3] | other results
1 | 176 to 177 °C | CCCCCCN(C(=O)Nc1ccc(C(=O)O)cc1)c1ccc2c(c1)C(C)(C)CCC2(C)C [Compound 13, 4-[3-hexyl-3-(5,5,8,8-tetramethyl-5,6,7,8-tetrahydro-naphthalen-2-yl)-ureido]-benzoic acid] | – | –
2 | 175 to 186 °C | CCCN(C(=O)Nc1ccc(C(=O)O)cc1)c1ccc2c(c1)C(C)(C)CCC2(C)C [Compound 55] | unexpectedly selective at activating transcription activity through the gamma receptor | –

The next lines start with the molecule.

Row | SMILES | melting point | selectivity of transactivation among RAR α, β and γ [3] | other results
3 | CCCCCCCCN(C(=O)Nc1ccc(C(=O)O)cc1)c1ccc2c(c1)C(C)(C)CCC2(C)C [Compound 25, 4-[3-octyl-3-(5,5,8,8-tetramethyl-5,6,7,8-tetrahydro-naphthalen-2-yl)-ureido]-benzoic acid] | 166 to 167 °C and 165.8 to 167.2 °C | – | –
4 | CCCCCN(C(=O)Nc1ccc(C(=O)O)cc1)c1ccc2c(c1)C(C)(C)CCC2(C)C [Compound 27, 4-[3-pentyl-3-(5,5,8,8-tetramethyl-5,6,7,8-tetrahydro-naphthalen-2-yl)-ureido]-benzoic acid] | – | unexpectedly selective at activating transcription activity through the gamma receptor | alveolar repair [1]: significant; triglyceride levels expressed as a percentage relative to vehicle control (100%) ([2]; two weeks (10 doses), at the higher dose, FIG. 2): < 100%; elevation of triglyceride levels relative to vehicle control (in words) ([2]; two weeks, 0.3, 1 and 3 mg/kg): did not significantly elevate triglycerides levels
5 | CC1(C)CCC(C)(C)c2cc(NC(=O)Nc3ccc(C(=O)O)cc3)ccc21 [Compound 39, reference compound] | – | pan-agonists | –
6 | CN(C(=O)Nc1ccc(C(=O)O)cc1)c1ccc2c(c1)C(C)(C)CCC2(C)C [Compound 40, reference compound] | – | pan-agonists | dose dependence of triglyceride levels ([2]; two weeks, 0.3, 1 and 3 mg/kg): triglyceride levels increasing with increasing dosage
7 | CCCCCN(C(=O)Nc1ccc(C(=O)O)cc1F)c1ccc2c(c1)C(C)(C)CCC2(C)C [Compound 57, 3-fluoro-4-[3-pentyl-3-(5,5,8,8-tetramethyl-5,6,7,8-tetrahydro-naphthalen-2-yl)-ureido]-benzoic acid] | 150.9 to 157.4 °C | – | –
